From ChEMBL document CHEMBL4321788, “Rational Design of Multitarget-Directed Ligands: Strategies and Emerging Paradigms” (J Med Chem, 2019)

Experiments:
Homo sapiens = species on record: Homo sapiens; experiment: Antioxidant activity in human M17 cell lysate assessed as trolox equivalents of ABTS radical scavenging activity incubated up to 10 mins; assay type: functional, subcellular
Lipoxygenase = Lipoxygenase (Glycine max, UniProt Q39829); experiment: Inhibition of soya bean LOX assessed as reduction in formation of 13-hydroperoxylinoleic acid using sodium linoleate as substrate
[1] = target: Histamine H2 receptor (Cavia porcellus) (UniProt P47747); experiment: Binding affinity to histamine H2 receptor in guinea pig right atrium
Chain of Histamine H2 receptor (Cavia porcellus) (P47747 whole entry): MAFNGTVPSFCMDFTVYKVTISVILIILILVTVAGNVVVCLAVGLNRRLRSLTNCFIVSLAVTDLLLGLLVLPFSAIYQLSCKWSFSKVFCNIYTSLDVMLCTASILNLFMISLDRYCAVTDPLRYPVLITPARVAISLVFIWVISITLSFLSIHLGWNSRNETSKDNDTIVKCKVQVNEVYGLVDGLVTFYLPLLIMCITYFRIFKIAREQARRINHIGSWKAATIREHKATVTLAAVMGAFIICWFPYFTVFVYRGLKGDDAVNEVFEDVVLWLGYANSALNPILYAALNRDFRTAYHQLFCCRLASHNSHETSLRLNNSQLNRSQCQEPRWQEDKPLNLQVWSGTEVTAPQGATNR

[2] = target: Histamine H1 receptor (Cavia porcellus) (UniProt P31389); experiment: Binding affinity to histamine H1 receptor in guinea pig ileum incubated up to 20 mins; assay type: tissue-based
Chain of Histamine H1 receptor (Cavia porcellus) (P31389 whole entry): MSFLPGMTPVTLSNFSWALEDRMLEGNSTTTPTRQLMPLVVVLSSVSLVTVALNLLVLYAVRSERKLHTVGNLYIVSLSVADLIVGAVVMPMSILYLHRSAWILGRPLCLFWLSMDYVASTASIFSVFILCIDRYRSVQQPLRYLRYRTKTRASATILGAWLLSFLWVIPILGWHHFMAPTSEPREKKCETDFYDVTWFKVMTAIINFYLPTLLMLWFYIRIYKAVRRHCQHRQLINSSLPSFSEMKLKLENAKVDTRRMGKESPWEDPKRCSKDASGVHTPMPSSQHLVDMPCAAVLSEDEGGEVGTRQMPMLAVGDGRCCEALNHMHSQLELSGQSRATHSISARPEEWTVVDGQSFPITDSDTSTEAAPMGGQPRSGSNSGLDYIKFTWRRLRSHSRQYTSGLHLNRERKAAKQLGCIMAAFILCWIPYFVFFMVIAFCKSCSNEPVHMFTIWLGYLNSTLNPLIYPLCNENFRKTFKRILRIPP

[3] = target: Amyloid-beta precursor protein (Homo sapiens, UniProt P05067); experiment: Inhibition of self-induced aggregation of amyloid beta (1 to 42) (unknown origin) incubated for 24 hrs by TEM analysis
Chain of Amyloid-beta precursor protein (P05067 whole entry): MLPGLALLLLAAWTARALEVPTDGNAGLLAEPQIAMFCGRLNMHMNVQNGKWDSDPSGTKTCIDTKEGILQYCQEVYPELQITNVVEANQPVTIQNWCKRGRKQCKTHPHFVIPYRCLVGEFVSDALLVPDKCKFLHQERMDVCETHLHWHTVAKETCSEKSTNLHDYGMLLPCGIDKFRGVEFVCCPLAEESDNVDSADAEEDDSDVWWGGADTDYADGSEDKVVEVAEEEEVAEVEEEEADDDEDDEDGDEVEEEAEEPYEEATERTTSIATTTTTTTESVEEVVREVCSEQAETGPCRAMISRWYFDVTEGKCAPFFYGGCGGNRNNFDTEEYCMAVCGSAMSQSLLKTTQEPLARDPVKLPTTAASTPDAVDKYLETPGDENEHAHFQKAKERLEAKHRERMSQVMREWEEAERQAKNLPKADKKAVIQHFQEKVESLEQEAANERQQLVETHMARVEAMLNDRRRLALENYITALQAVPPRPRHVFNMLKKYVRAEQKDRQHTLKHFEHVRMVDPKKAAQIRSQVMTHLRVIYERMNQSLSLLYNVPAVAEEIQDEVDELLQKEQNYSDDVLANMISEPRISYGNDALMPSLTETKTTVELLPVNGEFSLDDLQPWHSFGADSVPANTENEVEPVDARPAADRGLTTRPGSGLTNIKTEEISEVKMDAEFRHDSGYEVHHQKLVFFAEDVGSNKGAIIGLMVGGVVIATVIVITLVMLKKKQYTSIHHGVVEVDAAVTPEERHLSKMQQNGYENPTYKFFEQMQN

Histamine H3 receptor = Histamine H3 receptor (Homo sapiens, UniProt Q9Y5N1); experiment: Antagonist activity at human histamine H3 receptor stably expressed in HEK293 cells assessed as cAMP accumulation incubated for 60 mins by Eu-cAMP tracer based TR-FRET assay; assay type: functional, cell-based
Chain of Histamine H3 receptor (Q9Y5N1 whole entry): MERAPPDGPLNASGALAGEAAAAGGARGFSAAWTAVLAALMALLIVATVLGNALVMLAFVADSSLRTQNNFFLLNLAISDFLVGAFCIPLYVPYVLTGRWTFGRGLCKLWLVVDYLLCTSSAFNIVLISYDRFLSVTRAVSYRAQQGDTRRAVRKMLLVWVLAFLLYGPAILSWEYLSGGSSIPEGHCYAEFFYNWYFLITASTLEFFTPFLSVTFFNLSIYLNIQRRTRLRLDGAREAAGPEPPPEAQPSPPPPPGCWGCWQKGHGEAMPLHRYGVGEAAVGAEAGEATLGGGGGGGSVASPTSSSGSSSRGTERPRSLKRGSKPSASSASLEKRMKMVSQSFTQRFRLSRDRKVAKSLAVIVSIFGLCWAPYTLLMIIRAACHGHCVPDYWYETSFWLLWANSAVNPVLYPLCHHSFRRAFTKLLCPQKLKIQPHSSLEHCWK

Rattus norvegicus = experiment: Antinociceptive activity in Wistar rat model of acetic-acid induced nociception pain assessed as reduction in writhes by measuring reduction in hind limb extension at 0.01 mmol/0.1kg, ip pretreated for 30 min followed by acetic-acid treatment and measured every 5 mins for 30 mins relative to control; assay type: functional; design: scale not given: the % may be the effect or the level left
Neuromedin-K receptor = target: T1, Neuromedin-K receptor (Homo sapiens, UniProt P29371); experiment: Displacement of [125I][MePhe]NKB from human NK3 receptor expressed in CHO cells membranes; assay type: cell membranes
T1 sequence (P29371 whole entry): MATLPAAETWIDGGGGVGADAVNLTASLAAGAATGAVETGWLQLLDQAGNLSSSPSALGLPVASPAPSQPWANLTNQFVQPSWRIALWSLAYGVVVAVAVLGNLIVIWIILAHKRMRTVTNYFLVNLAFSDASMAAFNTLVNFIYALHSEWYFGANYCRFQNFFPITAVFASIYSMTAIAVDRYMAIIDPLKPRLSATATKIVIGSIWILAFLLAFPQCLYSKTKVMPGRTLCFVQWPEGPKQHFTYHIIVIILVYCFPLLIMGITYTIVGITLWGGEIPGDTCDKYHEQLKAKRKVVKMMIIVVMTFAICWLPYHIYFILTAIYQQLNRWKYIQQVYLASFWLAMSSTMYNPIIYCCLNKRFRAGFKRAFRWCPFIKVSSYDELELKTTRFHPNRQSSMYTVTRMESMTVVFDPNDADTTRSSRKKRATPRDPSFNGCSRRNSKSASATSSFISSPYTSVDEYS

Substance-K receptor = target: T2, Substance-K receptor (Homo sapiens, UniProt P21452); experiment: Displacement of [3H]NKA from human NK2 receptor expressed in CHO cells membranes; assay type: cell membranes
T2 sequence (P21452 whole entry): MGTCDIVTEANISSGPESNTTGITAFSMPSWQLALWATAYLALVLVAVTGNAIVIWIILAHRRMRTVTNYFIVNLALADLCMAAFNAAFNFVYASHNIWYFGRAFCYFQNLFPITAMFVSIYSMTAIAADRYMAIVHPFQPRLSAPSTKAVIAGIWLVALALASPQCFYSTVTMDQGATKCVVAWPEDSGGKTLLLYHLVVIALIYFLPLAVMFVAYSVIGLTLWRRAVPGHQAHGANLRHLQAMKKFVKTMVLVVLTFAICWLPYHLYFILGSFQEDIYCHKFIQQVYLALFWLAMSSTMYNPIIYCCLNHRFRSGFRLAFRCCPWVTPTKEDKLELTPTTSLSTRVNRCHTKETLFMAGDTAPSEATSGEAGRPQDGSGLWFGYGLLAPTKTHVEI

Substance-P receptor = Substance-P receptor (Homo sapiens, UniProt P25103); experiment: Displacement of [3H]Sar SP from human NK1 receptor expressed in CHO cells membranes; assay type: cell membranes
Chain of Substance-P receptor (P25103 whole entry): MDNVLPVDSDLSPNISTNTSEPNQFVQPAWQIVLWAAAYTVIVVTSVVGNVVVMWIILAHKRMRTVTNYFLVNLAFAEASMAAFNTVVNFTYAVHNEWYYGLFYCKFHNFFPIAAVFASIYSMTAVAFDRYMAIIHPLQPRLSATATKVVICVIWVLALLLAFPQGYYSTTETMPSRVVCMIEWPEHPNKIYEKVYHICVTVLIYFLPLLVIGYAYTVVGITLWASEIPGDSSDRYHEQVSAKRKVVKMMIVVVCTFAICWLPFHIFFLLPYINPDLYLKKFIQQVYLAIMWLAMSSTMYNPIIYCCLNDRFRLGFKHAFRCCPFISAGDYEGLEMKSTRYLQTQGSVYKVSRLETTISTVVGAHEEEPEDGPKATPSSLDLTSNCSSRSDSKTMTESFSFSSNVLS

[4] = Inhibition of ROS generation in human MC65 cells assessed as reduction in tetracycline removal-induced ROS level incubated for 48 hrs by DCFH-DA staining based flow cytometric analysis; assay type: functional, cell-based; conditions: MC65, 48 h
[5] = Neuroprotective activity against tetracycline removal-induced cytotoxicity in human MC65 cells assessed as increase in cell viability incubated for 72 hrs by MTT assay; assay type: functional, cell-based; conditions: MC65, 72 h
[6] = target: Sodium-dependent serotonin transporter (Rattus norvegicus, UniProt P31652); experiment: Inhibition of rat synaptosome SERT
Chain of Sodium-dependent serotonin transporter (P31652 whole entry): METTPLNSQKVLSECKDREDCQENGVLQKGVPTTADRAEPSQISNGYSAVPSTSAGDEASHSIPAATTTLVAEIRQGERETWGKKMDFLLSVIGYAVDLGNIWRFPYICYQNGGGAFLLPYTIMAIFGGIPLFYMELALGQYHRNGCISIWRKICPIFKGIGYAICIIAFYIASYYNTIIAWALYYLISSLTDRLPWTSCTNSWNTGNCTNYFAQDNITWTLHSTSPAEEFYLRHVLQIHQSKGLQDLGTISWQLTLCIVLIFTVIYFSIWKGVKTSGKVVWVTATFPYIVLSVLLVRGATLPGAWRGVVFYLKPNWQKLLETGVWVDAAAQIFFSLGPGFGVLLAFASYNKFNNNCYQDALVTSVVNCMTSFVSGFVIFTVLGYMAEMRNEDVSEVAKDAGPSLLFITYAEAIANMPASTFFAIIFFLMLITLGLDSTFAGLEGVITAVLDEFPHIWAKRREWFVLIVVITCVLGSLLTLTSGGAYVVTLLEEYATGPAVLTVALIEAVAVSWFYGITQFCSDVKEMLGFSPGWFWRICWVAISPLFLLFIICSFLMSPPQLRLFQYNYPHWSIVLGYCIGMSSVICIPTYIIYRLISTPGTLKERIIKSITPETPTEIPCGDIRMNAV

Acetylcholinesterase = target: T3, Acetylcholinesterase (Mus musculus, UniProt P21836); experiment: Inhibition of mouse brain AChE
T3 sequence (P21836 whole entry): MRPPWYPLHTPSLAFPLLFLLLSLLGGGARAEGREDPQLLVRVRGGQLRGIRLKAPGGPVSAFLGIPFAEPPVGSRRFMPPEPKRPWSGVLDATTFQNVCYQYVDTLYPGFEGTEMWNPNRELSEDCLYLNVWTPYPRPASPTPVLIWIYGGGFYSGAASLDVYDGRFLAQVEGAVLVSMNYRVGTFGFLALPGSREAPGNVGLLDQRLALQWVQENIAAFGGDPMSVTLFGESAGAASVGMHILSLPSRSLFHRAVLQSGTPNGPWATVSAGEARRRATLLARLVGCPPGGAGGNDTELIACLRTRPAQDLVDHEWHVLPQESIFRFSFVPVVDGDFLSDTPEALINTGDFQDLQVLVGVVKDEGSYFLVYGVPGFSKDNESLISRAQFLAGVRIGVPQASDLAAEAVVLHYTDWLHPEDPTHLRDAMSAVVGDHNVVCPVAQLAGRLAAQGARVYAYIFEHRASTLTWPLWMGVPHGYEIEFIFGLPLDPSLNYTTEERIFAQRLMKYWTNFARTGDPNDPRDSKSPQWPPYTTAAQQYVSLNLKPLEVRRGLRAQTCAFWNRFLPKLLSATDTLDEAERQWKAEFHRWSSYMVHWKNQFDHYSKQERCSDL

Question: With `Cc1c(C)c2c(c(C)c1O)CCC(C)(C(=O)O)O2` (stereo not drawn) as the compound, how does the Activity (Homo sapiens) read?
Answer: 1

Question: Which IC50 (Lipoxygenase) does the source give for `O=C(O)/C=C/c1cccc(Oc2ccccc2)c1` here?
Answer: 89000 nM

Question: With `COc1ccc(CN(CCN(C)CCCCCCN/C(=N/C#N)NCCCOc2cccc(CN3CCCCC3)c2)c2ccccn2)cc1` as the compound, how does the pKb [1] read?
Answer: 6.43

Question: And the pKb [2]?
Answer: 8.42

Question: Which results are given for `CCN(CC)CCCOc1ccc(-n2ccc(=O)c(O)c2C)cc1`?
Answer: IC50 [3]: 17200 nM; IC50 (Histamine H3 receptor): 12.8 nM

Question: For `CC(=O)Nc1ccc(O)cc1` [ACETAMINOPHEN], which Activity (Rattus norvegicus) is on record?
Answer: 66%

Question: Which IC50 (Lipoxygenase) does the source give for `CC(=O)Nc1cccc(OC(=O)/C=C/c2cccc(Oc3ccccc3)c2)c1` here?
Answer: 340 nM

Question: And the Activity (Rattus norvegicus)?
Answer: 91 - 98.1%

Question: Which Activity (Homo sapiens) does the source give for `CN(C)c1ccc(O)c(CNc2cccc3ccc(CO)nc23)c1` here?
Answer: 1.41

Question: Which Ki (Neuromedin-K receptor) does the source give for `CNC(=O)C[C@H]1CCCN(C2CCN(CC[C@@H](/C(CN(C)C(=O)c3cc(Cl)cc(Cl)c3)=N/OC)c3ccc(Cl)c(Cl)c3)CC2)C1` here?
Answer: 0.3 nM

Question: And the Ki (Substance-K receptor)?
Answer: 0.4 nM

Question: What about the Ki (Substance-P receptor) of the same compound?
Answer: 1.3 nM

Question: With `CN(CCCNC(=O)NCCCOc1ccc(CN2CCCCC2)cc1)CCC(c1ccc(F)cc1)c1ccccn1` (stereo not drawn) as the compound, how does the pKb [1] read?
Answer: 6.68

Question: With `COc1ccc2[nH]cc(CCNC(=O)CC(=O)CCc3ccc(O)cc3)c2c1` as the compound, how does the IC50 [4] read?
Answer: 68 nM

Question: And the EC50 [5]?
Answer: 27.6 nM

Question: For `CCN(C)C(=O)Oc1cccc([C@H](C)N(C)C)c1` [RIVASTIGMINE], which IC50 [6] is on record?
Answer: > 1000 nM

Question: Which IC50 (Acetylcholinesterase) does the source give for `CNCCC(Oc1ccc(C(F)(F)F)cc1)c1ccccc1` (stereo not drawn) [FLUOXETINE] here?
Answer: > 10000 nM
